Measured values: patent US9580428B2, “Compositions and methods for inhibiting viral polymerase” (priority 2012, dated 2017)
Where “and” joins values, the source holds several entries; their conditions need not be identical. Equal values may be shown once. Where a name gives a salt, the structure may show the parent alone. Read-outs that look alike come from different tables or passages of the source. Marks after values point to notes of the source that are not given here.

How the values were obtained:
A/Vic/3/75 (H3N2) = experiment: microbe, parasite or virus in culture; assay type: cell-based; details: Influenza A virus
[1] = system: H3N2 virus (A/Victoria/3/75); set-up: species or system BALB/c mice; details: mouse, in vivo
[2] = system: H3N2 virus (A/Victoria/3/75); set-up: species or system BALB/c mice; details: mouse, in vivo; remark: listed apart in the source
[3] = system: Yellow fever virus (Jimenez strain); assay type: in vivo, Syrian golden hamsters; details: 100 mg/kg
[4] = system: Adenovirus type 165089/Chicago (A-549 cells); details: human
[5] = system: Adenovirus type 165089/Chicago (A-549 cells); details: human; remark: listed apart in the source
[6] = system: Influenza A H1N1 CA/04/2009 (Pandemic HIN1)
[7] = system: Influenza A H1N1 CA/04/2009 (Pandemic HIN1); remark: listed apart in the source
[8] = system: Rhinovirus 2 HGP (HeLa Ohio-1 cells); details: human
[9] = system: SARS-CoV Urbani (Vero 76 cells); details: African green monkey
West Nile (Vero Cells) = details: African green monkey
[10] = rat, in vivo, po; for AUC(0-inf) / Cmax / Tmax: male, Sprague-Dawley
in vitro [11] = details: African green monkey
in vitro [12] = details: African green monkey; remark: listed apart in the source
[13] = system: Punta Toro A2 (Vero 76 cells); experiment: microbe, parasite or virus in culture
[14] = system: Punta Toro A2 (Vero 76 cells); experiment: microbe, parasite or virus in culture; remark: listed apart in the source
[15] = system: Respiratory Syncytial A2 (MA-104 cells); experiment: microbe, parasite or virus in culture; details: human respiratory syncytial virus, MA104
[16] = system: Respiratory Syncytial A2 (MA-104 cells); experiment: microbe, parasite or virus in culture; details: human respiratory syncytial virus, MA104; remark: listed apart in the source
[17] = system: Rhinovirus 2 HGP (HeLa Ohio-1 cells); experiment: microbe, parasite or virus in culture; details: Enterovirus, HeLa Ohio1
[18] = system: Rhinovirus 2 HGP (HeLa Ohio-1 cells); experiment: microbe, parasite or virus in culture; details: Enterovirus, HeLa Ohio1; remark: listed apart in the source
[19] = system: Yellow Fever 17D (Vero 76 cells); experiment: microbe, parasite or virus in culture
[20] = system: Yellow Fever 17D (Vero 76 cells); experiment: microbe, parasite or virus in culture; remark: listed apart in the source

Cl.Cl.Nc1ncnc2c([C@@H]3N[C@H](CO)[C@@H](O)[C@H]3O)c[nH]c12 [compound 12i, (2S,3S,4R,5R)-2-(4-amino-5H-pyrrolo[3,2-d]pyrimidin-7-yl)-5-(hydroxymethyl)pyrrolidine-3,4-diol dihydrochloride]
EC50 (A/Vic/3/75 (H3N2)): 4 µg/mL
Mean day to death (Mean ± SEM) [1]: >16 days
Survival/Total [2]: 10/10*
Mean day to death (Mean ± SEM) ([2]; po): >16 days
Mean weight change (grams ± SEM) Day 9 ([2]; po): 0.01 + 0.27** grams
Survival/Total ([2]; po): 10/10*
Survival rate ([3]; 21 days): 100%
weight ([3]; hamster, in vivo, ip): weight gain over placebo and ribavirin
Survival rate ([3]; hamster, in vivo, ip, dihydrochloride): 100% and 80%
IC50 (50% cytotoxic dose) [4]: >100 ng/mL
IC50 (50% cytotoxic dose) [5]: >100 ng/mL
IC50 (50% cytotoxic dose) [6]: 210 ng/mL
IC50 (50% cytotoxic dose) [7]: 210 ng/mL
EC50 (Influenza B Florida): 1.8 µg/mL
IC50 (50% cytotoxic dose) [8]: >100 ng/mL
IC50 (50% cytotoxic dose) [9]: >100 ng/mL
IC50 (50% cytotoxic dose) (West Nile (Vero Cells)): >100 ng/mL
AUC(0-inf) ([10]; 10 mg/kg): 219 ng·h
Cmax ([10]; 10 mg/kg): 123 ng/mL
Tmax ([10]; 10 mg/kg): 30 min
IC50 (in vitro [11]): > 100 µg/mL
IC50 (in vitro [12]): > 100 µg/mL
EC50 [13]: 310 µg/mL
EC50 [14]: > 250 µg/mL
EC50 [15]: > 100 µg/mL
EC50 [16]: > 100 µg/mL
EC50 [17]: 57 µg/mL
EC50 [18]: 56 µg/mL
EC50 [19]: 8.3 µg/mL
EC50 [20]: 8.3 µg/mL

CC(C)[C@H](N)C(=O)OC[C@H]1N[C@@H](c2c[nH]c3c(N)ncnc23)[C@H](O)[C@@H]1O [compound 30f, (S)-((2R,3R,4S,5S)-5-(4-amino-5H-pyrrolo[3,2-d]pyrimidin-7-yl)-3,4-dihydroxypyrrolidin-2-yl)methyl 2-amino-3-methylbutanoate Hydrochloride]
AUC(0-inf) ([10]; 10 mg/kg): 1076 ng·h
Cmax ([10]; 10 mg/kg): 527 ng/mL
Tmax ([10]; 10 mg/kg): 30 min
hydrolysis by plasma esterases to compound 12i [10]: rapidly hydrolyze
bioavailability relative to compound 12i ([10]; 10 mg/kg): approximately four-fold
